Experimental data: PubChem BioAssay (NCI)
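A five-concentration, 48-hour dose response in 96-well plates underlies each endpoint, interpolated linearly between surrounding concentrations. Here, GI50 denotes the concentration required for 50% inhibition of growth. TGI denotes the concentration required for complete inhibition of growth.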

Columns and labels:
Assay in all cases: DTP human tumour cell line panel, 48 h
SK-OV-3 ovarian = system: SK-OV-3 ovarian
MOLT-4 leukemia = system: MOLT-4 leukemia
MDA-MB-435 = system: MDA-MB-435
DU-145 prostate = system: DU-145 prostate
SK-MEL-5 melanoma = system: SK-MEL-5 melanoma
HL-60(TB) leukemia = system: HL-60(TB) leukemia
CAKI-1 renal = system: CAKI-1 renal
HT29 colon = system: HT29 colon
MDA-MB-468 breast = system: MDA-MB-468 breast
MCF7 breast = system: MCF7 breast
NCI-H226 lung = system: NCI-H226 lung
HS 578T breast = system: HS 578T breast
786-0 renal = system: 786-0 renal
NCI-H460 lung = system: NCI-H460 lung
OVCAR-8 ovarian = system: OVCAR-8 ovarian
SF-295 CNS = system: SF-295 CNS
HCT-15 colon = system: HCT-15 colon
HCC-2998 colon = system: HCC-2998 colon
SK-MEL-2 melanoma = system: SK-MEL-2 melanoma
OVCAR-3 ovarian = system: OVCAR-3 ovarian
A549 NSCLC = system: A549 NSCLC
UO-31 renal = system: UO-31 renal
COLO 205 colon = system: COLO 205 colon
LOX IMVI melanoma = system: LOX IMVI melanoma
PC-3 prostate = system: PC-3 prostate
T-47D breast = system: T-47D breast
SNB-75 CNS = system: SNB-75 CNS
NCI-H522 lung = system: NCI-H522 lung
NCI-H23 lung = system: NCI-H23 lung
MALME-3M melanoma = system: MALME-3M melanoma
TK-10 renal = system: TK-10 renal
SN12C renal = system: SN12C renal
A498 renal = system: A498 renal
U251 CNS = system: U251 CNS
UACC-257 melanoma = system: UACC-257 melanoma
NCI/ADR-RES ovarian = system: NCI/ADR-RES ovarian
EKVX NSCLC = system: EKVX NSCLC
SK-MEL-28 melanoma = system: SK-MEL-28 melanoma
IGROV1 ovarian = system: IGROV1 ovarian
CCRF-CEM leukemia = system: CCRF-CEM leukemia
ACHN renal = system: ACHN renal
OVCAR-5 ovarian = system: OVCAR-5 ovarian
SF-268 CNS = system: SF-268 CNS
SW-620 colon = system: SW-620 colon
SF-539 CNS = system: SF-539 CNS
RXF 393 renal = system: RXF 393 renal
M14 melanoma = system: M14 melanoma
MDA-MB-231 breast = system: MDA-MB-231 breast
HOP-92 NSCLC = system: HOP-92 NSCLC
SNB-19 CNS = system: SNB-19 CNS
UACC-62 melanoma = system: UACC-62 melanoma
RPMI-8226 leukemia = system: RPMI-8226 leukemia
HOP-62 NSCLC = system: HOP-62 NSCLC
KM12 colon = system: KM12 colon
HCT-116 colon = system: HCT-116 colon
BT-549 breast = system: BT-549 breast
SR leukemia = system: SR leukemia

In the case of Cc1ccc(S(=O)(=O)c2nc(-c3ccccc3)oc2S(=O)(=O)CC(=O)N2CCCC2)cc1, the GI50 (SK-OV-3 ovarian) is reported as 15.6 µM, the TGI (SK-OV-3 ovarian) is reported as 30.5 µM and the GI50 (MOLT-4 leukemia) is reported as 1.73 µM. For the same compound, the TGI (MOLT-4 leukemia) was 5.22 µM, the GI50 (MDA-MB-435) was 3.08 µM and the TGI (MDA-MB-435) was 13.8 µM. For the same compound, the GI50 (DU-145 prostate) was 1.63 µM, the TGI (DU-145 prostate) was 3.37 µM and the GI50 (SK-MEL-5 melanoma) was 12.5 µM. The TGI (SK-MEL-5 melanoma) was 25.2 µM, the GI50 (HL-60(TB) leukemia) was 0.978 µM and the TGI (HL-60(TB) leukemia) was 3.48 µM. The GI50 (CAKI-1 renal) was 1.21 µM, the TGI (CAKI-1 renal) was 2.5 µM and the GI50 (HT29 colon) was 1.54 µM. The TGI (HT29 colon) was 4.05 µM, the GI50 (MDA-MB-468 breast) was 0.587 µM and the TGI (MDA-MB-468 breast) was 1.97 µM. For the same compound, the GI50 (MCF7 breast) was 1.17 µM, the TGI (MCF7 breast) was 2.9 µM and the GI50 (NCI-H226 lung) was 13.3 µM. For the same compound, the TGI (NCI-H226 lung) was 34.7 µM, the GI50 (HS 578T breast) was 3.68 µM and the TGI (HS 578T breast) was 28.2 µM. It also gave a GI50 (786-0 renal) of 1.45 µM, a TGI (786-0 renal) of 2.93 µM and a GI50 (NCI-H460 lung) of 7 µM. The TGI (NCI-H460 lung) was 22.5 µM, the GI50 (OVCAR-8 ovarian) was 7.2 µM and the TGI (OVCAR-8 ovarian) was 25.1 µM. For the same compound, the GI50 (SF-295 CNS) was 12.2 µM, the TGI (SF-295 CNS) was 25 µM and the GI50 (HCT-15 colon) was 1.4 µM. The TGI (HCT-15 colon) was 2.92 µM, the GI50 (HCC-2998 colon) was 11.2 µM and the TGI (HCC-2998 colon) was 24.1 µM. The GI50 (SK-MEL-2 melanoma) was 13.1 µM, the TGI (SK-MEL-2 melanoma) was 26.2 µM and the GI50 (OVCAR-3 ovarian) was 1.27 µM. For the same compound, the TGI (OVCAR-3 ovarian) was 2.66 µM, the GI50 (A549 NSCLC) was 13.1 µM and the TGI (A549 NSCLC) was 29.1 µM. For the same compound, the GI50 (UO-31 renal) was 1.36 µM, the TGI (UO-31 renal) was 2.66 µM and the GI50 (COLO 205 colon) was 1.89 µM. It also gave a TGI (COLO 205 colon) of 4.38 µM, a GI50 (LOX IMVI melanoma) of 1.45 µM and a TGI (LOX IMVI melanoma) of 2.82 µM. It also gave a GI50 (PC-3 prostate) of 11.8 µM, a TGI (PC-3 prostate) of 30.7 µM and a GI50 (T-47D breast) of 1.78 µM. For the same compound, the TGI (T-47D breast) was 4.94 µM, the GI50 (SNB-75 CNS) was 3.89 µM and the TGI (SNB-75 CNS) was 17.4 µM. It also gave a GI50 (NCI-H522 lung) of 1.06 µM, a TGI (NCI-H522 lung) of 2.49 µM and a GI50 (NCI-H23 lung) of 8.06 µM. It also gave a TGI (NCI-H23 lung) of 23.6 µM, a GI50 (MALME-3M melanoma) of 1.55 µM and a TGI (MALME-3M melanoma) of 2.95 µM. For the same compound, the GI50 (TK-10 renal) was 1.7 µM, the TGI (TK-10 renal) was 3.15 µM and the GI50 (SN12C renal) was 6.68 µM. It also gave a TGI (SN12C renal) of 19.6 µM, a GI50 (A498 renal) of 11.9 µM and a TGI (A498 renal) of 24.3 µM. It also gave a GI50 (U251 CNS) of 15.5 µM, a TGI (U251 CNS) of 29.7 µM and a GI50 (UACC-257 melanoma) of 1.73 µM. It also gave a TGI (UACC-257 melanoma) of 3.73 µM, a GI50 (NCI/ADR-RES ovarian) of 11.4 µM and a TGI (NCI/ADR-RES ovarian) of 65 µM. The GI50 (EKVX NSCLC) was 2.44 µM, the TGI (EKVX NSCLC) was 7.76 µM and the GI50 (SK-MEL-28 melanoma) was 1.82 µM. For the same compound, the TGI (SK-MEL-28 melanoma) was 3.54 µM, the GI50 (IGROV1 ovarian) was 6.54 µM and the TGI (IGROV1 ovarian) was 20.8 µM. For the same compound, the GI50 (CCRF-CEM leukemia) was 0.529 µM, the TGI (CCRF-CEM leukemia) was 2.95 µM and the GI50 (ACHN renal) was 1.36 µM. For the same compound, the TGI (ACHN renal) was 2.65 µM, the GI50 (OVCAR-5 ovarian) was 11 µM and the TGI (OVCAR-5 ovarian) was 23.4 µM. For the same compound, the GI50 (SF-268 CNS) was 12.2 µM, the TGI (SF-268 CNS) was 33.2 µM and the GI50 (SW-620 colon) was 0.801 µM. It also gave a TGI (SW-620 colon) of 2.24 µM, a GI50 (SF-539 CNS) of 1.54 µM and a TGI (SF-539 CNS) of 2.91 µM. It also gave a GI50 (RXF 393 renal) of 1.08 µM, a TGI (RXF 393 renal) of 2.41 µM and a GI50 (M14 melanoma) of 1.77 µM. The TGI (M14 melanoma) was 4.15 µM, the GI50 (MDA-MB-231 breast) was 1.63 µM and the TGI (MDA-MB-231 breast) was 3.11 µM. For the same compound, the GI50 (HOP-92 NSCLC) was 2.71 µM, the TGI (HOP-92 NSCLC) was 8.32 µM and the GI50 (SNB-19 CNS) was 14.5 µM. It also gave a TGI (SNB-19 CNS) of 27.6 µM, a GI50 (UACC-62 melanoma) of 4.53 µM and a TGI (UACC-62 melanoma) of 16.5 µM. It also gave a GI50 (RPMI-8226 leukemia) of 2.68 µM, a TGI (RPMI-8226 leukemia) greater than 100 µM and a GI50 (HOP-62 NSCLC) of 14.4 µM. The TGI (HOP-62 NSCLC) was 31 µM, the GI50 (KM12 colon) was 14.9 µM and the TGI (KM12 colon) was 32 µM. It also gave a GI50 (HCT-116 colon) of 1.52 µM, a TGI (HCT-116 colon) of 3.34 µM and a GI50 (BT-549 breast) of 3.89 µM. The TGI (BT-549 breast) was 11.8 µM, the GI50 (SR leukemia) was 1.49 µM and the TGI (SR leukemia) was 6.6 µM.
